Legend:
Format in all cases: cell-based
[1] = tested on: Plasmodium falciparum K1 strain; experiment: Chloroquine resistant-Plasmodium falciparum growth inhibition screening test; details: for EC50: Plasmodium falciparum, 72 h, chloroquine resistant K1 strain, 3H-hypoxanthine, 48 + 24 hours, read-out: 50% growth inhibition concentration P. falciparum K1; for Selective toxicity: chemotherapy index = EC50 rat L6 cells / EC50 chloroquine resistant P. falciparum
Protocol: In the present example, protozoa of Plasmodium falciparum K1 strain was used. RPMI-1640 medium sterilized with a filter to which human serum was added to be 5%, was used in the experiment. Malarial parasites were cultured under 3% O2 concentration, 4% Co2 concentration, 93% N2 concentration, and at a temperature of 37° C.
The compounds of the present invention to be used in the present test and the positive target drug (chloroquine) were dissolved in DMSO to make a test solution of a predetermined concentration. Cultured malarial parasite infected-erythrocytes were collected by centrifugation, and diluted with non-infected erythrocyte so that the early infection rate is 0.15%. Hematocrit level at that time was 2.5%. 200 μL of malaria infected solution was added to wells of a 96-well culture plate, and adjusted by adding a test solution containing drug of a predetermined concentration or a drug-free DMSO. Test solutions were taken by duplicates. After culturing for 48 hours at 37° C., 0.5 μCi radioactive tritium (3H)-labeled hypoxanthine was added to each well. After further culturing for 24 hours under the same conditions, it was collected on a glass fiber filter and washed with distilled water. Radiation intensity was measured with a beta plate liquid scintillation counter (Wallac), and malarial parasite infection rates of the test solution added group and of the control group were calculated. Growth inhibition rate was calculated with the following formula based on the malarial parasite infection rate obtained in the above, to obtain a 50% growth inhibition concentration (EC50). Growth inhibition rate (%)={1−(b−a)/(c−a)}×100 a: early infection rate b: infection rate when test solution was added c: infection rate of the control

[2] = tested on: Trypanosoma brucei rhodensiense (STIB 900 strain); experiment: African trypanosome protozoa growth inhibition screening test; details: Trypanosoma brucei, STIB900; STIB 900 strain, blood stream form, 72 hours, Alamar Blue; read-out: 50% growth inhibiting concentration Trypanosoma brucei rhod.
Protocol: In the present example, protozoa of Trypanosoma brucei rhodensiense (STIB 900 strain), a trypamastigote living in blood stream, was used. The medium used in the experiment was a MEM medium which was sterilized with a filter and supplemented with 25 mM N-2-hydroxyethylpiperazine-2-ethansulfonic acid […]), 1 g/L glucose, 1% MEM non-essential amino acid, 0.2 mM 2-mercaptoethanol, 2 mM sodium pyruvate, 0.1 mM hypoxanthine, and 15% heat-treated horse serum. The protozoa was cultured in an atmosphere of CO2 concentration 5%, at a temperature of 37° C.
The compounds of the present invention to be used in the present test and the positive target drug (melarsoprol) were dissolved in DMSO to make a test solution of a predetermined concentration. A medium containing 8×10^3 protozoa, and a test solution containing a drug of a predetermined concentration or a drug-free DMSO were added to wells of a 96-well culture plate, and subsequently, medium was added so that the amount in each well becomes 100 μL. Test solutions were taken by duplicates. After culturing the culture plate for 72 hours in an incubator, growth inhibition activity was tested. Test was conducted as follows. 10 μL of Alamar Blue aqueous solution was added to each well, and the resultant was further cultured for 2 hours. Next, the culture plate was placed on a fluorescent micro-plate reader (Spectramax Gemeni XS; US Molecular Device), radiated at an excited wavelength of 536 nm. Fluorescent intensity was measured at 588 nm, to calculate the trypanosome protozoa infected rate of the test solution added-group, and of the control group. From the protozoan infection rate obtained in the above, growth inhibition rate was calculated with the following formula, to obtain a 50% growth inhibition concentration (EC50). Growth inhibition rate (%)={1−(b−a)/(c−a)}×100 a: early infection rate b: infection rate when test solution was added c: infection rate of the control

[3] = tested on: Trypanosoma cruzi (Tulahuen C2C4 strain); experiment: American trypanosome protozoa growth inhibition screening test; details: for EC50: Trypanosoma cruzi, Tulahuen C2C4 strain in rat L6 cells, 96 hours, CPRG/Nonidet, read-out: 50% growth inhibition concentration Trypanosoma cruzi; for Selective toxicity: chemotherapy index = EC50 rat L6 cells / EC50 American trypanosome protozoa
Protocol: In the present example, amastigote and trypomastigote infected with rat L6 cells of protozoa of Trypanosoma cruzi (Tulahuen C2C4 strain) were used. As medium used in the test, RPMI 1640 medium containing L6 cells was supplemented so that L-glutamine (200 mM) becomes 1%, fetal bovine serum becomes 10%, which was cultured under CO2 concentration 5%, at 37° C.
The compounds of the present invention to be used in the test and the positive target agent (benznidazole) were dissolved in DMSO to make a test solution of a predetermined concentration. A medium containing 5×10^3 protozoa was added to wells of a 96-well culture plate, and pre-cultured for 48 hours. After replacing the medium, test solution containing drug of a predetermined concentration or a drug-free DMSO was added. Test solutions were taken by duplicates. After culturing the culture plate in an incubator for 96 hours, growth inhibition activity was tested. Test was conducted as follows.
50 μL of CPRG/Nonidet was added to each well, and allowed to rest for 2 to 6 hours. Next, the culture plate was placed on a fluorescent micro-plate reader, and the absorbance was measured at 540 nm. Growth inhibition rate was calculated with the following formula based on the protozoan infection rate which was obtained by calculating trypanosome infection rate of the test solution added group and control group, to obtain a 50% growth inhibition concentration (EC50). Growth inhibition rate (%)={1−(b−a)/(c−a)}×100 a: early infection rate b: infection rate when test solution was added c: infection rate of the control

[4] = tested on: Leishmania donovani (MHOM/ET/67/L82 strain); experiment: Leishmania protozoa growth inhibition screening test; details: Leishmania donovani; MHOM/ET/67/L82 strain amastigote, pH 5.4, 72 hours, Alamar Blue; read-out: 50% growth inhibition concentration Leishmania donovani
Protocol: In the present example, Leishmania donovani (MHOM/ET/67/L82 strain) was used. Protozoa was subcultured in Syrian Golden hamster, from which an amastigote was obtained. In the experiment, SM medium supplemented with 10% heat-treated bovine fetal serum was used, which was adjusted to pH 5.4, and cultured in an atmosphere of 5% CO2 concentration, at 37° C.
The compounds of the present invention to be used in the present test and the positive target drug (miltefosine) were dissolved in DMSO to make a test solution of a predetermined concentration. After adding a medium containing a predetermined number of protozoa to wells of a 96-well culture plate and pre-treating, concentration of the amastigote was measured with CASY cell analysis system (Scharfe, Germany). Then, test solution containing a drug of a predetermined concentration or a drug-free DMSO was added. Test solutions were taken by duplicates. After culturing the culture plate for 72 hours in an incubator, growth inhibition activity was tested. Test was conducted as follows.
10 μL of Alamar Blue aqueous solution was added to each well, and the resultant was further cultured for 2 hours. Next, the culture plate was placed on a fluorescent micro-plate reader (Spectramax Gemeni XS; US Molecular Device), radiated at an excited wavelength of 536 nm. Fluorescent intensity was measured at 588 nm, and infection rate of leishmania protozoa of the test solution added-group and control was calculated, to obtain a 50% growth inhibition concentration (EC50). Growth inhibition rate (%)={1−(b−a)/(c−a)}×100 a: early infection rate b: infection rate when test solution was added c: infection rate of the control

Row | SMILES | EC50 [1] | Selective toxicity [1] | EC50 [2] | EC50 [3] | Selective toxicity [3] | EC50 [4]
1 | CCN1C(C)=CS/C1=C\C=c1/s/c(=C\c2sc3ccccc3[n+]2CC)n(CC)c1=O [A-15] | 76 nM | 291 | 89 nM | 980 nM | 22 | 170 nM
2 | CCN1/C(=C/C=c2\s/c(=C\C3=[N+](CC)CCS3)n(CC)c2=O)C=Cc2ccccc21 [A-10] | 120 nM | 170 | 200 nM | 160 nM | 130 | 150 nM
3 | CCN1/C(=C/C=c2\s/c(=C\c3sc4c5ccccc5ccc4[n+]3CC)n(CC)c2=O)Sc2ccc3ccccc3c21 [A-1] | 11 nM | 2700 | 16 nM | 5100 nM | 5.9 | 8.3 nM

From patent publication US8193224B2, “Medicinal composition for prevention or treatment of parasitic protozoan infection” (Fujifilm Corporation, priority 2004, dated 2012)
